Biological target: FabB (Escherichia coli, UniProt P0A953)
Assay: NMR wLOGSY assay to evaluate FabB binding
Parameters: species or system E. coli

Sequence of FabB (P0A953 whole entry): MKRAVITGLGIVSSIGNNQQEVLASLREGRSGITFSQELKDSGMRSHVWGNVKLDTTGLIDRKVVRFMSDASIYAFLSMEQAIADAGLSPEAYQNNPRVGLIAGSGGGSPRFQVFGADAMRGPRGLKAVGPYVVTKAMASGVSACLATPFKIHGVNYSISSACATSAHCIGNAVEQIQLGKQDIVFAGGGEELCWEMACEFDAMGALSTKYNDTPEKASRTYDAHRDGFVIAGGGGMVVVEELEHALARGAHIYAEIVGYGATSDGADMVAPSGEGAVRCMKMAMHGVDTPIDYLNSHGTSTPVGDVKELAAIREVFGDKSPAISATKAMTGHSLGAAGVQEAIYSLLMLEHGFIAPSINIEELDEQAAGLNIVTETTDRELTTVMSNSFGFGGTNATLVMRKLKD

O=c1oc2cc(Cl)ccc2n1CN(CC1CCOC1)C1CC1 (stereo not shown) [compound 1]
FabB binding in NMR wLOGSY assay: exhibited binding
